Legend:
[1] = Liposome size by dynamic light scattering; format: physicochemical; details: liposomes loaded with carfilzomib, before lyophilizing
Description: The lipid concentration is determined by measuring the cholesterol by HPLC using an Agilent 1100 HPLC with and Agilent Zorbax 5 um, […], Eclipse XDB-C8 column and a mobile phase of A=0.1% TFA, B=0.1% TFA/MeOH with an isocratic elution of 99% B. The flow rate is 1.0 mL/min, column temperature is 50° C., 10 μL injection and detection by absorbance at 205 nm. The retention time of cholesterol is 4.5 min. The liposome size is measured by dynamic light scattering.
See Example 1, Carfilzomib liposome entrapment by remote loading for details on how the liposomes were made, purified and characterized.

[2] = Reverse gradient-directed drug release from liposomes; format: physicochemical; details: for % Carfilzomib Released: 65 C 30 min
Description: Liposomes were loaded with carfilzomib as described in Example 1 and were purified into deionized water. The sample was divided into two aliquots. To the first aliquot, concentrated Hepes pH 7.4 and NaCl was added so that the final concentration was 5 mM Hepes, 145 mM NaCl (HBS). To the second aliquot, concentrated ammonium sulfate was added so that the final concentration was 250 mM. No obvious physical changes were initially observed. The samples were then heated at 65° C. for 30 min. The samples were transferred to clean eppendorf tubes and centrifuged for 10,000 rpm for 5 min after which the supernatants and precipitates were separated and tested for carfilzomib content by HPLC assay. Released drug precipitated, liposome encapsulated drug remained in the supernatant. The % carfilzomib released was calculated by […]

[3] = Remote loading of carfilzomib precipitate into liposomes (drug and lipid by HPLC after purification); format: physicochemical
[4] = unencapsulated drug; Yang et al 2011; cited from earlier work
[5] = 250 mM ammonium sulfate liposomes, drug added at 200 g drug/mol HSPC
[6] = input drug/HSPC 91.8 g/mol, [(NH4)2SO4] 250 mM
[7] = input drug/HSPC 167.3 g/mol, [(NH4)2SO4] 250 mM
[8] = input drug/HSPC 251.8 g/mol, [(NH4)2SO4] 250 mM
[9] = input drug/HSPC 338.1 g/mol, [(NH4)2SO4] 250 mM
[10] = input drug/HSPC 432.8 g/mol, [(NH4)2SO4] 250 mM
[11] = input drug/HSPC 450.6 g/mol, [(NH4)2SO4] 500 mM
[12] = input drug/HSPC 545.9 g/mol, [(NH4)2SO4] 500 mM
[13] = input drug/HSPC 639.2 g/mol, [(NH4)2SO4] 500 mM
[14] = input drug/HSPC 639.2 g/mol, [(NH4)2SO4] 500 mM, listed as Carfilzomib
[15] = input drug/HSPC 758.7 g/mol, [(NH4)2SO4] 500 mM
[16] = input drug/HSPC 758.7 g/mol, [(NH4)2SO4] 500 mM, listed as Carfilzomib
[17] = triethylammonium sulfate gradient, input 650 g drug/mol HSPC, at 30 min

## CC(C)C[C@H](NC(=O)[C@H](CCc1ccccc1)NC(=O)CN1CCOCC1)C(=O)N[C@@H](Cc1ccccc1)C(=O)N[C@@H](CC(C)C)C(=O)[C@@]1(C)CO1 [carfilzomib]
[1]; (NH4)2SO4, drug added quickly
  PDI: 0.062
  Z-ave: 108 nm
[1]; (NH4)2SO4, drug added slowly
  PDI: 0.035
  Z-ave: 109.2 nm
[1]; Mellitic Acid
  PDI: 0.08
  Z-ave: 105.5 nm
[1]; Napthelenedisulfonic acid
  PDI: 0.039
  Z-ave: 111.9 nm
[2]
  drug released with reverse gradient over control with no reverse gradient: 6.5 fold
[2]; 250 mM ammonium sulfate outside (reverse gradient)
  % Carfilzomib Released: 68.5 ± 1.82%
[2]; Hepes buffered saline (no reverse gradient)
  % Carfilzomib Released: 10.6 ± 0.28%
[2]; after loading and release by reverse gradient
  degradation of released drug (HPLC chromatogram against starting material): no degradation of carfilzomib had taken place
[3]; [5]
  final drug to lipid ratio: 136.9±7.35 g drug/mol of HSPC
  loading efficiency: 67.94±3.67%
[3]; DMSO 1% and above (up to 10% v/v), input 200 ug/umol, ammonium sulfate liposomes
  loading efficiency: 74-94%
[3]; DMSO absent
  loading: practically no loading
[3]; control liposomes with 250 mM sodium sulfate (no gradient), drug added at 200 g drug/mol HSPC
  final drug load: 29.01±0.79 g drug/mol of HSPC
[3]; delay up to 12 h
  effect of time between precipitate formation and loading on loading efficiency: does not have a significant impact
[3]; drug added as solid powder, 65 C for 30 min, 100 g drug/mol HSPC
  efficiency of remote loading: 3.88%±0.053%
[3]; drug added as solid powder, 65 C for 120 min, 100 g drug/mol HSPC
  efficiency of remote loading: 3.47%±0.030%
[3]; [6]
  Drug payload/carrier weight ratio: 0.07 g drug/g total lipid
  Output drug/HSPC: 83.5 g/mol
  efficiency: 90.9%
[3]; [7]
  Drug payload/carrier weight ratio: 0.11 g drug/g total lipid
  Output drug/HSPC: 127.2 g/mol
  efficiency: 76.0%
[3]; [8]
  Drug payload/carrier weight ratio: 0.15 g drug/g total lipid
  Output drug/HSPC: 174.1 g/mol
  efficiency: 69.1%
[3]; [9]
  Drug payload/carrier weight ratio: 0.18 g drug/g total lipid
  Output drug/HSPC: 210.7 g/mol
  efficiency: 62.3%
[3]; [10]
  Drug payload/carrier weight ratio: 0.20 g drug/g total lipid
  Output drug/HSPC: 240.5 g/mol
  efficiency: 55.6%
[3]; [11]
  Drug payload/carrier weight ratio: 0.29 g drug/g total lipid
  Output drug/HSPC: 345.2 g/mol
  efficiency: 76.6%
[3]; [12]
  Drug payload/carrier weight ratio: 0.32 g drug/g total lipid
  Output drug/HSPC: 380.9 g/mol
  efficiency: 69.8%
[3]; [13]
  Drug payload/carrier weight ratio: 0.37 g drug/g total lipid
  Output drug/HSPC: 440 ± 10.2 g/mol
  efficiency: 68.7±4.80%
[3]; [14]
  Output drug/HSPC: 438.9 g/mol
  efficiency: 68.7%
[3]; [15]
  Drug payload/carrier weight ratio: 0.4 g drug/g total lipid
  Output drug/HSPC: 469 ± 4.9 g/mol
  efficiency: 61.7±1.2%
[3]; [16]
  Drug payload/carrier weight ratio: 0.40 g drug/g total lipid
  Output drug/HSPC: 468.2 g/mol
  efficiency: 61.7%
[3]; room temperature, 3 POPC/2 Chol/0.15 PEG-DSPE liposomes, 187 g drug/mol
  efficiency of remote loading: 100.52%±1.01%
[3]; room temperature, 95 PChemsPC/5 PEG-DSPE liposomes, 100 g drug/mol PChemsPC
  efficiency of remote loading: 95.5%±1.23%
[3]; trapping agent mellitic acid, 100 g drug/mol HSPC
  efficiency of remote loading: 37.4%±2.01%
[3]; trapping agent napthelenedisulfonic acid, 100 g drug/mol HSPC
  efficiency of remote loading: 95.1%±1.76%
[3]; [17]
  efficiency: 65.9±1.98%
  greatest payload achieved: 440±12.6 g drug/mol HSPC
[4]
  t1/2 in the blood stream: < 20 min

From US20140220110A1, “REMOTE LOADING OF SPARINGLY WATER-SOLUBLE DRUGS INTO LIPOSOMES” (ZONEONE PHARMA, INC., priority 2013, published 2014)
